Assay [1] concerns the target Beta Secretase enzyme (BACE) (Homo sapiens, UniProt P56817). Put plainly: In vitro enzymatic BACE FRET (fluorescence resonance energy transfer) assay. In kind it is biochemical. The procedure, abridged: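 Cleavage of a 50 nM fluorophore/quencher peptide FRET substrate by BACE for 1 h in 0.05 M acetate pH 4.2, 10% DMSO, 100 uM genapol. Reaction stopped with Tris to neutral pH before fluorescence reading.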

Assay [2] has as its system Aβ40 in conditioned medium of cells stably expressing Amyloid Precursor Protein (APP). Description: In vitro BACE cell-based assay (Aβ40 in conditioned medium, sandwich ELISA). The procedure, abridged:
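Quantification relied on pAb40/6E10 sandwich ELISA with Europium fluorescence counts, and IC50 was fitted versus concentration.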

The mark [3] stands for this setting: average IC50, enzyme assay, read-out: BACE 1 FRET assay.
[4] abbreviates: Homo sapiens, HEK293, average IC50, HEK cells, read-out: HEK cell assay.

SMILES strings stand for the structures. Read-outs that look alike come from different tables or passages of the source.

We go through 27 compounds from patent US8883782B2, “Spiro-tetracyclic ring compounds as beta-secretase modulators and methods of use” (Amgen Inc., priority 2010, dated 2014).

Sequence of Beta Secretase enzyme (BACE) (P56817 46-501, species assumed): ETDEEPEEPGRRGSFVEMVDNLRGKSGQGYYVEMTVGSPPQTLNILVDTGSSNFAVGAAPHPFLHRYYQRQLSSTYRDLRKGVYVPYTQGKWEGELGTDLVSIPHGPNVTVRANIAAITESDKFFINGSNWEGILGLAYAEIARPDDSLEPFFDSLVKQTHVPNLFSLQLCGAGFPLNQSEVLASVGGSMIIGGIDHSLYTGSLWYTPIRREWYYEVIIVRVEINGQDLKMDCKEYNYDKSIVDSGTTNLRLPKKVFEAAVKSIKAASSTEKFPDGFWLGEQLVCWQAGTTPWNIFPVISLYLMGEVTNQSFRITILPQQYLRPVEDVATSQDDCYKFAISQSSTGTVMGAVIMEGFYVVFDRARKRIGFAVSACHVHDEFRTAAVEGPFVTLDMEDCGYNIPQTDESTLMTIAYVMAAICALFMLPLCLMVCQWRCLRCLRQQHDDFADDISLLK

For the compound `CC(C)(C)COc1ccc2c(c1)[C@@]1(COC(N)=N1)c1cc(C3=CCOCC3)cnc1O2` [Example 503, (5S)-3-(3,6-dihydro-2H-pyran-4-yl)-7-(2,2-dimethylpropoxy)spiro[chromeno[2,3-b]pyridine-5,4′-[1,3]oxazol]-2′-amine], the IC50 was 0.0047 µM in assay [1] (setting [3]) and 0.0196 µM in assay [2] (setting [4]).

For `CC(C)(C)COc1ccc2c(c1)[C@@]1(COC(N)=N1)c1cc(C3=CCOC(C)(C)C3)cnc1O2` [Example 504, (5S)-3-(2,2-dimethyl-3,6-dihydro-2H-pyran-4-yl)-7-(2,2-dimethylpropoxy)spiro[chromeno[2,3-b]pyridine-5,4′-[1,3]oxazol]-2′-amine], the IC50 is 0.0076 µM in assay [1] (setting [3]) and 0.0297 µM in assay [2] (setting [4]).

With `CC1(C)CC(c2ccc3c(c2)[C@]2(COC(N)=N2)c2cc(-c4cncnc4)c(F)cc2O3)=CCO1` [Example 505, (4R)-7′-(2,2-dimethyl-3,6-dihydro-2H-pyran-4-yl)-3′-fluoro-2′-(5-pyrimidinyl)spiro[1,3-oxazole-4,9′-xanthen]-2-amine], the IC50 in assay [1] (setting [3]) turned out to be 0.0026 µM; in assay [2] (setting [4]), 0.0125 µM.

For the compound `CC(C)(C)COc1ccc2c(c1)[C@@]1(COC(N)=N1)c1cc(C3=CC(C)(C)OCC3)cnc1O2` [Example 506, (5S)-3-(6,6-dimethyl-3,6-dihydro-2H-pyran-4-yl)-7-(2,2-dimethylpropoxy)spiro[chromeno[2,3-b]pyridine-5,4′-[1,3]oxazol]-2′-amine], the IC50 in assay [1] (setting [3]) is 0.0057 µM; in assay [2] (setting [4]) it was 0.0361 µM.

Consider `CC(C)(C)COc1ccc2c(c1)[C@@]1(COC(N)=N1)c1cc(C3=CCOC(C)(C)C3)cnc1O2` [Example 507, (5S)-3-(2,2-dimethyl-3,6-dihydro-2H-pyran-4-yl)-7-(2,2-dimethylpropoxy)spiro[chromeno[2,3-b]pyridine-5,4′-[1,3]oxazol]-2′-amine], for which the IC50 in assay [1] (setting [3]) worked out at 0.0056 µM; in assay [2] (average IC50, HEK cells, read-out: HEK cell assay) it was 0.031 µM.

Regarding `CC(C)(C)COc1ccc2c(c1)[C@@]1(COC(N)=N1)c1cc(-c3cncnc3)c(F)cc1O2` [Example 511, (4R)-7′-(2,2-dimethylpropoxy)-3′-fluoro-2′-(5-pyrimidinyl)spiro[1,3-oxazole-4,9′-xanthen]-2-amine], the IC50 came to 0.0993 µM in assay [1] (setting [3]) and 0.492 µM in assay [2] (setting [4]).

Take `CC(C)(C)COc1ccc2c(c1)[C@]1(COC(N)=N1)c1cc(-c3cncnc3)c(F)cc1O2` [Example 512, (4S)-7′-(2,2-dimethylpropoxy)-3′-fluoro-2′-(5-pyrimidinyl)spiro[1,3-oxazole-4,9′-xanthen]-2-amine]: the IC50 was determined as 0.103 µM in assay [1] (setting [3]) and 0.378 µM in assay [2] (setting [4]).

With `NC1=N[C@]2(CO1)c1cc(C3=CCCOC3)ccc1Oc1cc(F)c(-c3cncnc3)cc12` [Example 514, (4R)-7′-(5,6-dihydro-2H-pyran-3-yl)-3′-fluoro-2′-(5-pyrimidinyl)spiro[1,3-oxazole-4,9′-xanthen]-2-amine], the IC50 in assay [1] (setting [3]) was 0.0026 µM; in assay [2] (setting [4]), 0.0114 µM.

`CC(C)(C)COc1ccc2c(c1)[C@]1(COC(N)=N1)c1c(ccc(-c3cncnc3)c1F)O2` [Example 515, (4R)-7′-(2,2-dimethylpropoxy)-1′-fluoro-2′-(5-pyrimidinyl)spiro[1,3-oxazole-4,9′-xanthen]-2-amine]: the IC50 in assay [1] (setting [3]) was 0.0013 µM; in assay [2] (setting [4]), 0.0285 µM.

Turning to `CC1(COc2ccc3c(c2Br)[C@]2(COC(N)=N2)c2cc(-c4cccnc4)ccc2O3)COC1` [Example 517, (4S)-1′-bromo-2′-((3-methyl-3-oxetanyl)methoxy)-7′-(3-pyridinyl)spiro[1,3-oxazole-4,9′-xanthen]-2-amine], the results for the IC50 in assay [1] (setting [3]) and in assay [2] (setting [4]) were 0.0084 µM and 0.0205 µM, respectively.

Consider `CC(C)(O)C#Cc1c(OCC2(C)COC2)ccc2c1[C@]1(COC(N)=N1)c1cc(-c3cccnc3)ccc1O2` [Example 518, 4-((4S)-2-amino-2′-((3-methyl-3-oxetanyl)methoxy)-7′-(3-pyridinyl)spiro[1,3-oxazole-4,9′-xanthen]-1′-yl)-2-methyl-3-butyn-2-ol], for which the IC50 in assay [1] (setting [3]) is 0.0755 µM; in assay [2] (setting [4]), 0.0649 µM.

As to `NC1=N[C@@]2(CO1)c1cc(-c3cccnc3F)ccc1Oc1ncc(C#CC3(O)COC3)cc12` [Example 519, 3-(((5S)-2′-amino-7-(2-fluoro-3-pyridinyl)spiro[chromeno[2,3-b]pyridine-5,4′-[1,3]oxazol]-3-yl)ethynyl)-3-oxetanol], the IC50 came out at 0.0032 µM in assay [1] (setting [3]) and 0.0297 µM in assay [2] (setting [4]).

As for `NC1=N[C@@]2(CO1)c1cc(-c3cccnc3F)ccc1Oc1ncc(C#CC3(F)COC3)cc12` [Example 520, (5S)-3-((3-fluoro-3-oxetanyl)ethynyl)-7-(2-fluoro-3-pyridinyl)spiro[chromeno[2,3-b]pyridine-5,4′-[1,3]oxazol]-2′-amine], the IC50 in assay [1] (setting [3]) was 0.0014 µM; in assay [2] (setting [4]), 0.0139 µM.

In the case of `COc1cc(F)c2c(c1)C1(COC(N)=N1)c1cc(Br)c(F)cc1O2` (stereo not drawn) [Example 521, 2′-bromo-3′,5′-difluoro-7′-methoxyspiro[1,3-oxazole-4,9′-xanthen]-2-amine], the IC50 was determined as 7.24 µM in assay [1] (setting [3]) and 10 µM in assay [2] (setting [4]).

As to `NC1=NC2(CS1)c1cc(I)ccc1Oc1ncc(Br)cc12` (stereo not drawn) [Example 522, 3-bromo-7-iodospiro[chromeno[2,3-b]pyridine-5,4′-[1,3]thiazol]-2′-amine], the IC50 in assay [1] (setting [3]) was 4.5 µM; in assay [2] (setting [4]) it was 10 µM.

Consider `COc1cc(F)c2c(c1)[C@]1(COC(N)=N1)c1cc(Br)c(F)cc1O2` [Example 523, (4S)-2′-bromo-3′,5′-difluoro-7′-methoxyspiro[1,3-oxazole-4,9′-xanthen]-2-amine], for which the figures for the IC50 in assay [1] (setting [3]) and in assay [2] (setting [4]) were 0.884 µM and 1.78 µM, respectively.

As to `COc1cc(F)c2c(c1)[C@@]1(COC(N)=N1)c1cc(Br)c(F)cc1O2` [Example 524, (4R)-2′-bromo-3′,5′-difluoro-7′-methoxyspiro[1,3-oxazole-4,9′-xanthen]-2-amine], the IC50 in assay [1] (setting [3]) was determined as 1.14 µM; in assay [2] (setting [4]), 1.31 µM.

Turning to `CC(C)(C)COc1cc(F)c2c(c1)[C@@]1(COC(N)=N1)c1cc(-c3cncnc3)c(F)cc1O2` [Example 525, (4R)-7′-(2,2-dimethylpropoxy)-3′,5′-difluoro-2′-(5-pyrimidinyl)spiro[1,3-oxazole-4,9′-xanthen]-2-amine], the values for the IC50 in assay [1] (setting [3]) and in assay [2] (setting [4]) were 0.159 µM and 2.39 µM, respectively.

Take `CC(C)(C)COc1cc(F)c2c(c1)[C@]1(COC(N)=N1)c1cc(-c3cncnc3)c(F)cc1O2` [Example 526, (4S)-7′-(2,2-dimethylpropoxy)-3′,5′-difluoro-2′-(5-pyrimidinyl)spiroy[1,3-oxazole-4,9′-xanthen]-2-amine]: the figures for the IC50 in assay [1] (setting [3]) and in assay [2] (setting [4]) were 0.002 µM and 0.0091 µM, respectively.

Regarding `NC1=N[C@@]2(CO1)c1cc(-c3cccc(Cl)c3)ccc1Oc1cnc(-c3cccc(Cl)c3)cc12` [Example 527, (5S)-3,7-bis(3-chlorophenyl)spiro[chromeno[2,3-c]pyridine-5,4′-[1,3]oxazol]-2′-amine], the IC50 in assay [1] (setting [3]) came to 0.0015 µM; in assay [2] (setting [4]), 0.612 µM.

As for `NC1=N[C@@]2(CO1)c1cc(-c3cccc(Cl)c3)ccc1Oc1cnc(Cl)cc12` [Example 528, (5S)-3-chloro-7-(3-chlorophenyl)spiro[chromeno[2,3-c]pyridine-5,4′-[1,3]oxazol]-2′-amine], the IC50 came out at 0.0553 µM in assay [1] (setting [3]) and 2.31 µM in assay [2] (setting [4]).

On to `CN1CCN(c2cc3c(cn2)Oc2ccc(-c4cccnc4F)cc2[C@@]32COC(N)=N2)CC1(C)C` [Example 529, (5S)-7-(2-fluoro-3-pyridinyl)-3-(3,3,4-trimethyl-1-piperazinyl)spiro[chromeno[2,3-c]pyridine-5,4′-[1,3]oxazol]-2′-amine], for which the IC50 in assay [1] (setting [3]) came to 0.0089 µM; in assay [2] (setting [4]), 0.0044 µM.

As to `C[C@H]1CN(c2cc3c(cn2)Oc2ccc(-c4cccnc4N4CCN(C)[C@@H](C)C4)cc2[C@@]32COC(N)=N2)CCN1C` [Example 530, (5S)-3-((3S)-3,4-dimethyl-1-piperazinyl)-7-(2-((3S)-3,4-dimethyl-1-piperazinyl)-3-pyridinyl)spiro[chromeno[2,3-c]pyridine-5,4′-[1,3]oxazol]-2′-amine], the IC50 in assay [1] (setting [3]) worked out at 3.37 µM; in assay [2] (setting [4]) it was 0.195 µM.

As for `CN1CCN(c2cccc(-c3ccc4c(c3)[C@@]3(COC(N)=N3)c3cc(Cl)ncc3O4)c2)CC1(C)C` [Example 531, (5S)-3-chloro-7-(3-(3,3,4-trimethyl-1-piperazinyl)phenyl)spiro[chromeno[2,3-c]pyridine-5,4′-[1,3]oxazol]-2′-amine], the figures for the IC50 in assay [1] (setting [3]) and in assay [2] (setting [4]) were 13.7 µM and 0.334 µM, respectively.

Take `COc1ccc2c(c1)[C@@]1(COC(N)=N1)c1cc(N3CCN(C)C(C)(C)C3)cc(F)c1O2` [Example 532, (4S)-4′-fluoro-7′-methoxy-2′-(3,3,4-trimethyl-1-piperazinyl)spiro[1,3-oxazole-4,9′-xanthen]-2-amine]: the IC50 in assay [1] (setting [3]) came out at 2.37 µM; in assay [2] (setting [4]), 0.169 µM.

For `COc1ccc(-c2cc3c(cn2)Oc2ccc(-c4cccnc4F)cc2[C@@]32COC(N)=N2)cc1F` [Example 533, (5S)-3-(3-fluoro-4-methoxyphenyl)-7-(2-fluoro-3-pyridinyl)spiro[chromeno[2,3-c]pyridine-5,4′-[1,3]oxazol]-2′-amine], the IC50 in assay [1] (BACE 1 FRET assay (uM)) was determined as 0.0014 µM; in assay [2] (Homo sapiens, HEK293, read-out: HEK cell assay (uM), average IC50, HEK cells), 0.0235 µM.

On to `NC1=N[C@@]2(CO1)c1cc(-c3cccnc3F)ccc1Oc1cnc(-c3ccc(F)c(F)c3)cc12` [Example 534, (5S)-3-(3,4-difluorophenyl)-7-(2-fluoro-3-pyridinyl)spiro[chromeno[2,3-c]pyridine-5,4′-[1,3]oxazol]-2′-amine], for which the results for the IC50 in assay [1] (setting [3]) and in assay [2] (setting [4]) were 0.0005 µM and 0.0266 µM, respectively.
